Literature values as cited in patent publication US12668568B2, “Adamantanyl-substituted benzamide compounds and their use as P2X7 receptor antagonists” (The University of Sydney, priority 2018, dated 2026).

conditions: literature log D7.4 values; cited from earlier work

Structure (SMILES) | log D7.4 of calibration standards
CC(C)=O [acetone] | −0.24
Nc1ccccc1 [aniline] | 0.90
c1ccc(N(c2ccccc2)c2ccccc2)cc1 [triphenylamine] | 5.74
